The values that follow come from patent publication US6939711B2, “Control of gene expression in plants by receptor mediated transactivation in the presence of a chemical ligand” (Syngenta Investment Corporation, priority 1995, dated 2005).

Assay [1] concerns the target T1, receptor polypeptides EcR and USP (Drosophila melanogaster, UniProt P34021).
T1 construct: expressed in transfected cells; host or cells: maize suspension cells (microprojectile bombardment)
T1 sequence (P34021 1-878): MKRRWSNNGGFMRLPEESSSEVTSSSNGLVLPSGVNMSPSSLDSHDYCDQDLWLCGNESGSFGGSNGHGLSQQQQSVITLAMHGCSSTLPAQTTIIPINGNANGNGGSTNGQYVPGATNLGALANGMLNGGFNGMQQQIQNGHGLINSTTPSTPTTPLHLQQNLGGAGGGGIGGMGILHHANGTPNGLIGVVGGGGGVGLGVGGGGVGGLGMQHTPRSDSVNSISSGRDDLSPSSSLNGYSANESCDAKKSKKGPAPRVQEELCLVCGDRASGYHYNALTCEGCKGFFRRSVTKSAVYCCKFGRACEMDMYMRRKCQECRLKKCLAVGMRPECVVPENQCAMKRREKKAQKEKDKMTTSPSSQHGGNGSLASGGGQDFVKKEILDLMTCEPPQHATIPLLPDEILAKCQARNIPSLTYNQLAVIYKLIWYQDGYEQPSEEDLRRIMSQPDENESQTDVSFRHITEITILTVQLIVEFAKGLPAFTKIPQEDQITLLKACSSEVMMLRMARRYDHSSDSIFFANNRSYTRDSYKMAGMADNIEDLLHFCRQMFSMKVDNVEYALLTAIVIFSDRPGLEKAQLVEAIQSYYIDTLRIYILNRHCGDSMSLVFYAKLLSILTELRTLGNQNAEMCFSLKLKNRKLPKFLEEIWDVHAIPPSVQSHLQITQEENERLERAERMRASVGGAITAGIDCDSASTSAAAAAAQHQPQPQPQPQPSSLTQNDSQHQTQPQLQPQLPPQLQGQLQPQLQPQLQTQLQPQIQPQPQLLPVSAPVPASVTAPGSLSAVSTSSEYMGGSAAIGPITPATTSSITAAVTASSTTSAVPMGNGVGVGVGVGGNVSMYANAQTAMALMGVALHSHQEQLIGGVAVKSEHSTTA
T1 sequence (P20153 1-508 partner): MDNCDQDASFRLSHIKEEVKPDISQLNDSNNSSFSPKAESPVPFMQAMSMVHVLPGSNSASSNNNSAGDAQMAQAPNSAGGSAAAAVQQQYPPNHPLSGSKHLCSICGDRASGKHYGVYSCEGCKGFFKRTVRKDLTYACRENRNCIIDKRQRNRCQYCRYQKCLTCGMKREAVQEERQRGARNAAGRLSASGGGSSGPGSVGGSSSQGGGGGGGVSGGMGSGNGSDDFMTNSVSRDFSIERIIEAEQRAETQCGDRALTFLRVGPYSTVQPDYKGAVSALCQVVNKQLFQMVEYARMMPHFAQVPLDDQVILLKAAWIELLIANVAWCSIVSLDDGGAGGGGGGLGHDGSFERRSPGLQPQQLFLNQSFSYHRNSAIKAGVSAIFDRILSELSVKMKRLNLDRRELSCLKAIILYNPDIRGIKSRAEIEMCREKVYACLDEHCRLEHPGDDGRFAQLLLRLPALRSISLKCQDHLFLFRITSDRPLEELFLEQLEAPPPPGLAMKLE
The assay can be described thus: Luciferase reporter transactivation, 35S/EcR + 35S/USP with (EcRE)5-Bz1/Luc co-transformed into maize cells. Type of assay: cell-based. The settings on record: approximately 48 hours. The source says:
(§1) Control of target polypeptide expression by various receptor polypeptides, including the chimeric receptor polypeptides of the present invention, can be shown by simultaneously transforming plant cells with the necessary gene constructions using high velocity microprojectile bombardment, followed by biochemical assay for the presence of the target polypeptide. The necessary gene constructions comprise a first receptor expression cassette which encodes a first receptor polypeptide and a second receptor expression cassette which encodes a second receptor polypeptide. In addition, a target expression cassette which-encodes a target polypeptide is also necessary (FIG. 1).
(§2) The expression cassettes were simultaneously delivered to maize suspension cells cultured in liquid N6 medium (Chu et al. Scientia Sinica XVIII:659-668, 1975) by high velocity microprojectile bombardment using standard techniques of DNA precipation onto microprojectiles and high velocity bombardment driven by compressed helium (PDS-1000/He, BioRad, Hercules, Calif.). […] Target polypeptide expression was detected by assaying the extract for the presence of the product encoded by the target expression cassette. […]
On the technique in general: A reporter such as luciferase makes a cellular process visible.

Assay [2] addresses T2, receptor polypeptide EcR and chimeric receptor polypeptide VP16-USP (Drosophila melanogaster, UniProt P34021).
T2 construct: expressed in transfected cells; host or cells: maize suspension cells (microprojectile bombardment)
T2 sequence (P34021 1-878): T1 sequence (P34021 1-878)
The format is cell-based. Conditions: 48 hours, maize cells, 35S/EcR + 35S/VP16-USP, (EcRE)6-Bz1/Luc.
Excerpt: as §1
The expression cassettes were simultaneously delivered to maize suspension cells cultured in liquid N6 medium (Chu et al. Scientia Sinica XVIII:659-668, 1975) by high velocity microprojectile bombardment using standard techniques of DNA precipation onto microprojectiles and high velocity bombardment driven by compressed helium (PDS-1000/He, BioRad, Hercules, Calif.). Transfected cells were incubated in liquid suspension in the presence of the appropriate chemical ligand for approximately 48 hours in N6 media After incubation, the transformed cells were harvested then homogenized at 0° C. Debris in the extracts was removed by centrifugation at 10,000 g at 4° C. for 5 minutes. Target polypeptide expression was detected by assaying the extract for the presence of the product encoded by the target expression cassette. One commonly used coding sequence for the target polypeptide when testing control of expression by the receptor polypeptides in the presence of a chemical ligand is firefly luciferase. The activity of firefly luciferase is determined by quantitating the chemiluminescence produced by luciferase catalyzed […] of luciferin using ATP as substrate (Promega Luciferase Kit, cat. no. E1500), using an Analytical Luminescence Model 2001 luminometer. […]

In assay [3] the target is T3, receptor polypeptide USP and chimeric receptor polypeptide EcR^227-825-C1 (Drosophila melanogaster, UniProt P34021).
T3 construct: expressed in transfected cells; host or cells: maize suspension cells (microprojectile bombardment)
The assay can be described thus: Luciferase reporter transactivation, 35S/USP + 35S/EcR^227-825-C1 with (EcRE)6-Bz1/Luc in maize cells. Type of assay: cell-based. Conditions: 10 μM ligand, 48 hours, 35S/USP + 35S/EcR^227-825-C1, (EcRE)6-Bz1/Luc.
Excerpt: as §1, §2

Assay [4] has as its target T4, receptor polypeptides GAL4-EcR^330-878 and USP-VP16 (Drosophila melanogaster, UniProt P34021).
T4 construct: expressed in transfected cells; host or cells: maize suspension cells (microprojectile bombardment)
The assay can be described thus: Luciferase reporter transactivation, 35S/GAL4-EcR^330-878 + 35S/USP-VP16 with (GAL4)10-Bz1/Luc in maize cells. The format is cell-based.
Excerpt: as §1, §2

Assay [5] has as its target T5, receptor polypeptides GAL4-EcR^330-825-C1 and VP16-USP (Drosophila melanogaster, UniProt P34021).
T5 construct: expressed in transfected cells; host or cells: maize suspension cells (microprojectile bombardment)
Briefly: Luciferase reporter transactivation, 35S/GAL4-EcR^330-825-C1 + 35S/VP16-USP with (GAL4)10-Bz1/Luc in maize cells. The format is cell-based. Conditions: 10 μM ligand, approximately 48 hours.
Excerpt: as §1, §2

The target in assay [6] is T6, receptor polypeptides GAL4-EcR^330-825-C1 and USP-VP16 (UniProt P34021).
T6 construct: expressed in transfected cells; host or cells: maize suspension cells (microprojectile bombardment)
The assay can be described thus: Luciferase reporter transactivation, 35S/GAL4-EcR^330-825-C1 + 35S/USP-VP16 with (GAL4)10-Bz1/Luc in maize cells. The format is cell-based, Drosophila. The settings on record: 10 μM ligand, approximately 48 hours, 35S/GAL4-EcR^330-825-C1 + 35S/USP-VP16, (GAL4)10-Bz1/Luc.
Excerpt: as §1, §2

Assay [7] concerns the target USP-VP16 chimeric receptor polypeptide (Drosophila; herpes simplex virus) (UniProt P20153). The assay can be described thus: cell-based or functional assay.

Like-named read-outs stand apart in the source and are kept apart here.

Turning to `CC(C)CC[C@@H](O)[C@](C)(O)[C@H]1CC[C@@]2(O)C3=CC(=O)[C@]4(O)C[C@@H](O)[C@@H](O)C[C@]4(C)[C@H]3[C@H](O)C[C@]12C` [Muristerone, muristerone], the “Luciferase Activity (light units)” value in assay [1] (2 μM ligand) is 1351 light units; in assay [2] (2 μM ligand), 12,374 light units.

As for `CCc1ccc(C(=O)NN(C(=O)c2cc(C)cc(C)c2)C(C)(C)C)cc1` [RH5992, tebufenozide], the “Luciferase Activity (light units)” value is given as 860 light units in assay [1] (10 μM ligand); 7,003 light units in assay [2] (10 μM ligand); 24,631 light units in assay [3]; 130,601 light units in assay [4] (10 μM ligand, approximately 48 hours, maize cells, 35S/GAL4-EcR^330-878 + 35S/USP-VP16, (GAL4)10-Bz1/Luc); 11,069 light units in assay [5]; 37,579 light units in assay [6]. Moreover, the “level of expression of luciferase above that observed in the absence of chemical ligand” value in assay [4] (10 μM RH5992, GAL4-EcR^330-878 + USP-VP16, maize cells) stood at 36 fold.

In assay [7], “GAL4-EcR^330-878 chimeric receptor polypeptide (from UniProt P04386 1-147; P34021 330-878)” yielded a Luciferase Activity (light units), (GAL4)10-Bz1/Luc target cassette in maize cells, with 10 uM RH5992 of 131000 light units; a Luciferase Activity (light units), (GAL4)10-Bz1/Luc target cassette in maize cells, without RH5992 of 3590 light units; a level of expression of the target polypeptide luciferase with RH5992 over that in the absence of chemical ligand of 36 fold.

Turning to `C[C@H]([C@H](O)CCC(C)(C)O)[C@H]1CC[C@@]2(O)C3=CC(=O)[C@@H]4C[C@@H](O)[C@@H](O)C[C@]4(C)[C@H]3CC[C@]12C` [ecdysone], the “Luciferase Activity (light units)” value in assay [2] (1 μM ligand) was 7,420 light units.
